{"source": "patent US9862652B2", "about": "“Microencapsulated nitrification inhibitor composition” (DOW AGROSCIENCES LLC, priority 2014, dated 2018)", "origin": "cited, not measured here", "data": [{"smiles": "Clc1cccc(C(Cl)(Cl)Cl)n1", "note": "[nitrapyrin, 2-chloro-6-(trichloromethyl)pyridine]", "values": [{"measurement": "nitrapyrin dissolved by Hallcomid M-8-10", "setting": "ambient temperature", "result": "about 50 weight percent"}, {"measurement": "nitrapyrin dissolved by Aromatic 100", "setting": "ambient temperature (24° C.)", "result": "about 51 weight percent"}, {"measurement": "nitrapyrin dissolved by cyclohexanone", "setting": "ambient temperature (24° C.)", "result": "about 60 wt %"}, {"measurement": "nitrapyrin dissolved by Aromatic 150", "setting": "−10° C.", "result": "about 29 weight percent"}]}]}
